Among the data in EP0623608B1, “BENZOPYRAN DERIVATIVE, PRODUCTION THEREOF, AND PHARMACEUTICAL PREPARATION CONTAINING THE SAME AS ACTIVE INGREDIENT” (TEIJIN LIMITED, priority 1992, dated 1993) are IC50 values, retold here.

This experiment deals with ACAT enzyme. Kind of experiment: Measurement of ACAT enzyme inhibitory activity of rabbit small intestinal microsomes. As to conditions: rabbit small intestinal mucosa microsome fraction 0.5 mg/ml, 43 µM oleoyl CoA containing [1-14C]oleoyl CoA, 37°C for 10 minutes. The class given is biochemical. As for the experimental part: Measurement of ACAT enzyme inhibitory activity (measurement of ACAT enzyme inhibitory activity of rabbit small intestinal microsomes
Rabbit small intestinal mucosa microsome was prepared and the ACAT enzyme activity was measured by the method of Salone and Field (reference: Biochemica et Biophysica, vol. 712, p. 557 (1982)) with a slight modification.
Using a 40 mM phosphate buffer containing 30 mM EDTA, 50 mM KCl, and 1.0M sucrose and having a pH of 7.4 (buffer A), rabbit small intestinal mucosa was homogenized. This was centrifuged at 10,000 x g and 4°C for 30 minutes to provide a supernatant. The supernatant was further centrifuged at 105,000 x g and 4°C for 1 hour to provide a precipitate. The precipitate was resuspended in the buffer A and used as the microsome fraction.
To the buffer A containing 43 µM bovine serum albumin and 0.5 mg/ml microsome fraction was added various concentrations of each specimen compound (compounds obtained in Examples 1, 3 to 5, and 7 to 14) in dimethylsulfoxide in amounts of 1% v/v. The mixture was heated at 37°C for 5 minutes. […]
0.111 kBq of [^3H] cholesteryl oleate and IN hydrochloric acid were added, and the mixture was stirred. The cholesteryl oleate extracted into the chloroform layer was isolated by a thin layer chromatography, and the radioactivity was measured as the ACAT activity.

SMILES strings stand for the structures.

In turn, `CCCCCCCCCCOc1ccc2c(=O)ccoc2c1NC(=O)C(C)(C)C` [Example 8, N-(7-decyloxyl-4-oxo-4H-1-benzopyran8-yl)-2,2-dimethylpropanamide] had an IC50 of 130 nM.
